Laboratory results: USRE37410E, “Controlled local delivery of chemotherapeutic agents for treating solid tumors” (priority 1999, dated 2001)
“And” between values parts separate entries of the source, which are not always exact repeats. Identical values can stand only once. Like-named read-outs stand apart in the source and are kept apart here.

Key:
[1] = tested on: glioma lines; settings: in vitro; cited from earlier work
[2] = in vivo; cited from earlier work
[3] = tested on: 9L; assay: Intracranial local drug delivery by polymer implant in rat glioma model, median survival (Table 1 summary); settings: in vivo
[4] = cited from earlier work
[5] = Intracranial local drug delivery by polymer implant in rat glioma model, P98 cells injected (Table 1 summary); format: in vivo; settings: p(FAD:SA) 5% load
From the text: Table 1 is a summary of studies on intracranial local drug delivery in rat glioma models, as described in the following examples.

[6] = tested on: melanoma and advanced gastrointestinal carcinoma; settings: human, in vivo; cited from earlier work
[7] = tested on: 9L; assay: Clonogenic assay, camptothecin; format: cell-based; settings: Rattus norvegicus
Experimental: (§1) Tumor cell lines. […] The F98 glioma cells were provided by Dr. Joseph Goodman, Department of Neurosurgery, Ohio State University, Columbus, Ohio. The human glioma cell lines U87 and U373 were provided by Dr. O. Michael Colvin, Johns Hopkins University School of Medicine, Baltimore, Md. JH1 is a cell line established from a biopsy specimen from a patient with a pathologically confirmed glioblastoma multiform.
(§2) Clonogenic assay. The sensitivity of each glioma cell line was tested in a clonogenic assay. At confluence, the cells were trypsinized and plated at 400 cells per 60 mm well. After 24 hours, fresh medium containing camptothecin at various concentrations was added. For brief exposure experiments, the camptothecin was removed and replaced with fresh medium after 1 hour; for continuous exposure, medium was left in place for 7 days. At 7 days, all plates were fixed and stained with coomassie brilliant blue (Bio Rad, Richmond, Calif.). Colonies containing more than 50 cells were identified and counted. Treatments were performed in triplicate. Survival was calculated as the number of colonies formed by the treated cells relative to the number of colonies formed by the untreated cells.

[8] = tested on: U373; assay: Clonogenic assay, camptothecin; format: cell-based; settings: Homo sapiens, U373 MG
Experimental: as §1, §2

[9] = tested on: F98; assay: Clonogenic assay, camptothecin; format: cell-based; settings: Rattus norvegicus
Experimental: as §1, §2

[10] = tested on: F98, 9L, U87, U373, JH1 cell lines; assay: In vitro efficacy of camptothecin on several cell lines (clonogenic assay); format: cell-based; settings: 168 h; rat and established human cell lines, continuous exposure; read-out: LD90 after continuous exposure
From the text: as §1
Cell culture of freshly biopsied gliomas. Biopsy samples were obtained from the operating room and transported in sterile specimen containers. Specimens were filtered through a 230 μm mesh collector screen (Bellco Glass, Inc., Vineland, N.J.) with use of a glass pestle. The specimen was then centrifuged at 1000 rpm for 10 minutes. The supernatant fraction was discarded and the cell pellet was resuspended in a 1 ml of minimum essential medium (Gibco BRL, Grand Island, N.Y.) with 10% fetal bovine serum, 0.5% L-glutamine, penicillin (base; 80.5 units/ml), and streptomycin (80.5 μg/ml). […] Sensitivity was assessed by the clonogenic assay below, beginning with the second passage.
Clonogenic assay. […] Colonies containing more than 50 cells were identified and counted. […] Survival was calculated as the number of colonies formed by the treated cells relative to the number of colonies formed by the untreated cells.

[11] = tested on: JH1; assay: Clonogenic assay, camptothecin; format: cell-based; settings: Homo sapiens; for IC100: read-out: concentration for total cell kill
From the text: as §1
Cell culture of freshly biopsied gliomas. Biopsy samples were obtained from the operating room and transported in sterile specimen containers. Specimens were filtered through a 230 μm mesh collector screen (Bellco Glass, Inc., Vineland, N.J.) with use of a glass pestle. The specimen was then centrifuged at 1000 rpm for 10 minutes. The supernatant fraction was discarded and the cell pellet was resuspended in a 1 ml of minimum essential medium (Gibco BRL, Grand Island, N.Y.) with 10% fetal bovine serum, 0.5% L-glutamine, penicillin (base; 80.5 units/ml), and streptomycin (80.5 μg/ml). The suspension was passed through a 25 gauge needle, after which it was recentrifuged at 1000 rpm for 5 minutes. The supernatant fraction was discarded and the pellet was resuspended in 5 ml of medium. This suspension was plated onto T75 culture flasks at various dilutions and incubated at 37° C. The medium was changed approximately every 3 days. When the initial culture reached confluence, the cells were trypsinized and passaged. Sensitivity was assessed by the clonogenic assay below, beginning with the second passage.
as §2

[12] = tested on: L1210; settings: in vitro; cited from earlier work
[13] = tested on: rat Walker 256 carcinosarcoma; settings: in vitro; cited from earlier work
[14] = sodium salt formulation; cited from earlier work
[15] = tested on: topoisomerase I; settings: cited from earlier work
[16] = tested on: U87; assay: Clonogenic assay, camptothecin; format: cell-based, human
Experimental: as §1, §2

[17] = 1 h, read-out: LD90 1 Hour Exposure
[18] = 168 h, continuous exposure, 7 days, read-out: LD90 Continuous Exposure

In the case of `COc1cccc2c1C(=O)c1c(O)c3c(c(O)c1C2=O)C[C@@](O)(C(=O)CO)C[C@@H]3O[C@H]1C[C@H](N)[C@H](O)[C@H](C)O1` [Adriamycin], the sensitivity of gliomas [1] is listed as “highly sensitive” and the cardiac toxicity [2] is listed as “significant dose related cardiac toxicity”.
In the case of `O=NN(CCCl)C(=O)NCCCl` [BCNU, 1,3-bis(2-chloroethyl)-1-nitrosourea], the “% increase survival” value [3] is listed as 634% and 437%, the “Median survival in days, Rx group” value [3] is listed as 80 and 62.3 and the “radius from implant within which BCNU is detectable” value ([4]; 21 days after implantation) is listed as ≤ 3 mm. The “radius from implant within which BCNU is detectable” value ([4]; Day 7) was ≤ 40 mm, the concentration ([4]; PCPP-SA (20:80), initially, read-out: average concentration in brain) was 8000 µM and the “amount of brain exposed to BCNU” value ([4]; over time) was “decrease after three days”.
In the case of `N.N.O=C([O-])C1(C(=O)[O-])CCC1.[Pt+2]` [Carboplatin], the “% increase survival” value ([5]; Rx day 5) is reported as 225% and the “Median survival in days, Rx group” value ([5]; Rx day 5, 1 × 10^5 cells injected, controls 16, n = 18) is reported as 52 days.
In the case of `CC[C@@]1(O)C(=O)OCc2c1cc1n(c2=O)Cc2cc3ccccc3nc2-1` [camptothecin, 4-ethyl-4-hydroxy-1H-pyrano[3',4':6,7]indolizino[1,2-b] quinoline-3,14(4H,12H)-dione], the systemic toxicity [6] is given as “unexpectedly severe systemic toxicity”, the tumoral responses [6] is given as “poor tumoral responses” and the IC90 [7, 17] is given as 1400 nM. The IC90 [7, 18] was 100 nM, the IC90 [8, 17] was 300 nM and the IC90 [8, 18] was 26 nM. For the same compound, the IC90 ([9]; F98, 1 h, read-out: LD90 1 Hour Exposure) was 1400 nM, the IC90 ([9]; F98, 168 h, continuous exposure, 7 days, read-out: LD90 Continuous Exposure) was 100 nM and the IC90 [10] was ≤ 100 nM. The IC90 [11, 17] was 100 nM, the IC90 [11, 18] was 26 nM and the IC100 ([11]; 1-hour exposure) was 0.14 µM. For the same compound, the IC100 ([11]; continuous exposure) was 0.03 µM, the cytotoxic anti-tumor activity [12] was “strong cytotoxic anti-tumor activity” and the cytotoxic anti-tumor activity [13] was “strong cytotoxic anti-tumor activity”. The protein binding [14] was “strongly protein-bound”, the “inhibition of topoisomerase I” value [15] was “irreversibly inhibiting” and the IC90 ([16]; 1 hour exposure, 60 min, read-out: LD90 1 Hour Exposure) was 1400 nM. It also gave an IC90 ([16]; Homo sapiens, U-87 MG, 1 h, 1 hour exposure, read-out: LD90 1 Hour Exposure) of 1200 nM and an IC90 ([16]; Homo sapiens, U-87 MG, 168 h, continuous exposure, 7 days, read-out: LD90 Continuous Exposure) of 100 nM.
For `CN(C)c1ccc(O)c2c1C[C@H]1C[C@H]3[C@H](N(C)C)C(O)=C(C(N)=O)C(=O)[C@@]3(O)C(O)=C1C2=O` [minocycline], the “% increase survival > no Rx” value [3] was 330% and the “% increase survival > ip BCNU” value ([3]; ip) was 93%.
